Test results taken from ChEMBL document CHEMBL1201862, “PubChem BioAssay data set” (2004).
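Where inhibition never reached the appropriate level, the endpoint shown equals the highest concentration tested. Otherwise, values were interpolated linearly from a five-concentration, 48-hour dose response in 96-well plates. Here, GI50 denotes the concentration required for 50% inhibition of growth.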 The source made the active and inactive calls. Cut-off read from the data, not from the text of the source: active = GI50 up to about 1.1 µM and inactive = higher.

Columns and labels:
Assay in all cases: inhibition of tumour cell growth, NCI panel, 48 h
A549 = tested on: A549
NCI-H23 = tested on: NCI-H23
SR = tested on: SR
MDA-N = tested on: MDA-N
MCF7 = tested on: MCF7
ACHN = tested on: ACHN
SK-MEL-28 = tested on: SK-MEL-28
UO-31 = tested on: UO-31
Hs-578T = tested on: Hs-578T
COLO 205 = tested on: COLO 205
CCRF-CEM = tested on: CCRF-CEM
SNB-19 = tested on: SNB-19
HOP-62 = tested on: HOP-62
OVCAR-3 = tested on: OVCAR-3
NCI-H460 = tested on: NCI-H460
EKVX = tested on: EKVX
SK-MEL-2 = tested on: SK-MEL-2
SNB-75 = tested on: SNB-75
A498 = tested on: A498
IGROV-1 = tested on: IGROV-1

SMILES	GI50 (A549)	GI50 (NCI-H23)	GI50 (SR)	GI50 (MDA-N)	GI50 (MCF7)	GI50 (ACHN)	GI50 (SK-MEL-28)	GI50 (UO-31)	GI50 (Hs-578T)	GI50 (COLO 205)	GI50 (CCRF-CEM)	GI50 (SNB-19)	GI50 (HOP-62)	GI50 (OVCAR-3)	GI50 (NCI-H460)	GI50 (EKVX)	GI50 (SK-MEL-2)	GI50 (SNB-75)	GI50 (A498)	GI50 (IGROV-1)
O=C(CCCCCCCCC(=O)N1C(=O)CC(=O)N(c2ccc(Cl)cc2)C1=S)N1C(=O)CC(=O)N(c2ccc(Cl)cc2)C1=S	34.2 µM (inactive)	58.5 µM (inactive)	8.93 µM (inactive)	38.6 µM (inactive)	37.8 µM (inactive)	35.4 µM (inactive)	70.3 µM (inactive)	35.7 µM (inactive)	> 100 µM (inactive)	32.9 µM (inactive)	30.9 µM (inactive)	74.1 µM (inactive)	80.9 µM (inactive)	51.3 µM (inactive)	29.6 µM (inactive)	47.4 µM (inactive)	49.1 µM (inactive)	> 100 µM (inactive)	> 100 µM (inactive)	–
Nc1n[nH]c2c(C(=O)Nc3ccc(Cl)cc3)c(N)n(N)c(=O)c12	> 100 µM (inactive)	> 100 µM (inactive)	> 100 µM (inactive)	> 100 µM (inactive)	> 100 µM (inactive)	–	> 100 µM (inactive)	> 100 µM (inactive)	> 100 µM (inactive)	> 100 µM (inactive)	> 100 µM (inactive)	> 100 µM (inactive)	–	> 100 µM (inactive)	> 100 µM (inactive)	> 100 µM (inactive)	> 100 µM (inactive)	> 100 µM (inactive)	> 100 µM (inactive)	> 100 µM (inactive)
CC(=O)C(=[N+]=[N-])C(=O)OCCOC(=O)C(=[N+]=[N-])C(C)=O	> 1 µM (active)	> 1 µM (active)	> 1 µM (active)	> 1 µM (active)	> 1 µM (active)	> 1 µM (active)	> 1 µM (active)	> 1 µM (active)	> 1 µM (active)	–	> 1 µM (active)	> 1 µM (active)	> 1 µM (active)	> 1 µM (active)	> 1 µM (active)	> 1 µM (active)	> 1 µM (active)	> 1 µM (active)	> 1 µM (active)	> 1 µM (active)
CNC(=O)[C@H](Cc1ccccc1)NC(=O)N(CCC#N)CCN(C(=O)N[C@@H](Cc1ccccc1)C(=O)OC)c1ccccc1	> 100 µM (inactive)	> 100 µM (inactive)	> 100 µM (inactive)	> 100 µM (inactive)	15.7 µM (inactive)	> 100 µM (inactive)	> 100 µM (inactive)	> 100 µM (inactive)	> 100 µM (inactive)	> 100 µM (inactive)	> 100 µM (inactive)	> 100 µM (inactive)	> 100 µM (inactive)	> 100 µM (inactive)	> 100 µM (inactive)	> 100 µM (inactive)	> 100 µM (inactive)	16.6 µM (inactive)	> 100 µM (inactive)	–
C=C1C2CC[C@@](C)(O)C2[C@H]2OC(=O)C(=C)[C@@H]2C[C@H]1O (some centres not stated)	29.3 µM (inactive)	17.7 µM (inactive)	17.1 µM (inactive)	24.5 µM (inactive)	14.2 µM (inactive)	10.8 µM (inactive)	26 µM (inactive)	13.6 µM (inactive)	23.4 µM (inactive)	15 µM (inactive)	2.56 µM (inactive)	48.6 µM (inactive)	30.7 µM (inactive)	20.4 µM (inactive)	–	29 µM (inactive)	20.9 µM (inactive)	43.4 µM (inactive)	41 µM (inactive)	28.4 µM (inactive)
BC(=O)NC(CC(C)C)C(=O)NC1c2ccsc2C(=O)C1O.CN(C)C (configuration not stated)	> 100 µM (inactive)	> 100 µM (inactive)	> 100 µM (inactive)	> 100 µM (inactive)	> 100 µM (inactive)	> 100 µM (inactive)	> 100 µM (inactive)	> 100 µM (inactive)	> 100 µM (inactive)	> 100 µM (inactive)	> 100 µM (inactive)	> 100 µM (inactive)	> 100 µM (inactive)	–	> 100 µM (inactive)	> 100 µM (inactive)	> 100 µM (inactive)	> 100 µM (inactive)	> 100 µM (inactive)	> 100 µM (inactive)
COc1ccc(CCN2C(=O)C(=O)C(C(=O)c3ccccc3)C2c2ccccc2)cc1OC (configuration not stated)	> 100 µM (inactive)	> 100 µM (inactive)	> 100 µM (inactive)	> 100 µM (inactive)	> 100 µM (inactive)	> 100 µM (inactive)	> 100 µM (inactive)	> 100 µM (inactive)	41.6 µM (inactive)	> 100 µM (inactive)	56.5 µM (inactive)	> 100 µM (inactive)	> 100 µM (inactive)	> 100 µM (inactive)	> 100 µM (inactive)	> 100 µM (inactive)	> 100 µM (inactive)	–	> 100 µM (inactive)	> 100 µM (inactive)
Cn1cncc1CC1COC(=O)C1C(O)c1ccccc1 (configuration not stated)	> 100 µM (inactive)	> 100 µM (inactive)	> 100 µM (inactive)	> 100 µM (inactive)	> 100 µM (inactive)	> 100 µM (inactive)	> 100 µM (inactive)	–	> 100 µM (inactive)	> 100 µM (inactive)	> 100 µM (inactive)	> 100 µM (inactive)	> 100 µM (inactive)	> 100 µM (inactive)	> 100 µM (inactive)	> 100 µM (inactive)	> 100 µM (inactive)	> 100 µM (inactive)	> 100 µM (inactive)	> 100 µM (inactive)
Cc1cc2[n-][n+]3ncc(-c4ccccc4)n3c2cc1[N+](=O)[O-]	> 100 µM (inactive)	–	> 100 µM (inactive)	> 10 µM (inactive)	> 100 µM (inactive)	> 100 µM (inactive)	> 100 µM (inactive)	> 100 µM (inactive)	> 100 µM (inactive)	> 100 µM (inactive)	> 100 µM (inactive)	> 100 µM (inactive)	> 100 µM (inactive)	> 100 µM (inactive)	> 100 µM (inactive)	> 100 µM (inactive)	> 100 µM (inactive)	> 100 µM (inactive)	> 100 µM (inactive)	> 100 µM (inactive)
O=C(CN1CCN(c2ccccc2)CC1)c1ccc2[nH]c(=O)oc2c1	–	> 100 µM (inactive)	> 100 µM (inactive)	> 100 µM (inactive)	> 100 µM (inactive)	> 100 µM (inactive)	> 100 µM (inactive)	–	70 µM (inactive)	> 100 µM (inactive)	> 100 µM (inactive)	–	> 100 µM (inactive)	> 100 µM (inactive)	> 100 µM (inactive)	> 100 µM (inactive)	> 100 µM (inactive)	> 100 µM (inactive)	> 100 µM (inactive)	> 100 µM (inactive)
CN=C(n1ccnc1)n1ccnc1	> 100 µM (inactive)	> 100 µM (inactive)	> 100 µM (inactive)	> 100 µM (inactive)	> 100 µM (inactive)	–	> 100 µM (inactive)	> 100 µM (inactive)	> 100 µM (inactive)	> 100 µM (inactive)	> 100 µM (inactive)	> 100 µM (inactive)	–	> 100 µM (inactive)	> 100 µM (inactive)	> 100 µM (inactive)	> 100 µM (inactive)	> 100 µM (inactive)	> 100 µM (inactive)	> 100 µM (inactive)
Cc1n[nH]c(=O)n1/N=C\CC/C=N\n1c(C)n[nH]c1=O	> 100 µM (inactive)	> 100 µM (inactive)	> 100 µM (inactive)	> 100 µM (inactive)	> 100 µM (inactive)	> 100 µM (inactive)	> 100 µM (inactive)	> 100 µM (inactive)	> 100 µM (inactive)	> 100 µM (inactive)	> 100 µM (inactive)	> 100 µM (inactive)	> 100 µM (inactive)	> 100 µM (inactive)	–	> 100 µM (inactive)	> 100 µM (inactive)	> 100 µM (inactive)	> 100 µM (inactive)	> 100 µM (inactive)
C[C@]1(CO)[C@H]2CC[C@@]34C=C[C@@](CO)(CC[C@H]3[C@]2(C)CC[C@H]1O)C4	> 100 µM (inactive)	40.4 µM (inactive)	24.3 µM (inactive)	34.2 µM (inactive)	59.4 µM (inactive)	31.9 µM (inactive)	> 100 µM (inactive)	35.4 µM (inactive)	55.7 µM (inactive)	26.4 µM (inactive)	> 100 µM (inactive)	15 µM (inactive)	62.2 µM (inactive)	> 100 µM (inactive)	–	29.4 µM (inactive)	> 100 µM (inactive)	17.9 µM (inactive)	> 100 µM (inactive)	25.4 µM (inactive)
COc1ccc2c(c1)N=C(N)n1c(nc3ccccc31)S2	30 µM (inactive)	10.4 µM (inactive)	5.52 µM (inactive)	3.45 µM (inactive)	10.9 µM (inactive)	21.3 µM (inactive)	70.1 µM (inactive)	12.2 µM (inactive)	58.1 µM (inactive)	5.27 µM (inactive)	2.99 µM (inactive)	82 µM (inactive)	57.8 µM (inactive)	22.2 µM (inactive)	8.18 µM (inactive)	–	7.98 µM (inactive)	31.7 µM (inactive)	32.1 µM (inactive)	16.1 µM (inactive)
